Values quoted from earlier work in US5698219A, “Nanoemulsion of the oil water type, useful as an ophthalmic vehicle and process for the preparation thereof” (Laboratorios Cusi, S.A., priority 1994, dated 1997).

Conditions: EP 0 521 799 A1; benzalkonium chloride at 0.02% (w/v)

Compound	preservative effectiveness when used individually
C[CH2][Hg][S]c1ccccc1C(=O)[O-].[Na+] [thimerosal]	lack of effectiveness
benzalkonium chloride	lack of effectiveness
